Here are results for 2 substances from US7084239B1, “Cancer peptides of NY-ESO-1/CAG-3” (The United States of America as represented by the …, priority 1997, dated 2006).

What all share (format): cell-based, human
Experiment [1] concerns TIL1244. As to the kind of experiment: T cell recognition of peptide-pulsed 586EBV B cells by TIL1244. The settings on record: peptide pulsed onto 586EBV B cells (FIG. 6). The source says:
FIGS. 6A–6H. CTL clones 2 and 14 recognize the NY-ESO-1 gene, but not the ESO10-53 peptide derived from the NY-ESO-1 protein. CTL clones 2, 14 and 5 recognized NY-ESO-1 when cotransfected with HLA-A31 cDNA into COS-7 (FIG. 6A, C, E and G). TIL1244, which recognized TRP-2 But not NY-ESO-1, was used as a specificity control. FIGS. 6B, D, F and H. CTL clones 2, 5, 14, and TIL1244 recognized 586mel. […] TIL1244 recognized the TRP197-205 peptide derived from TRP-2, 586EBV B cells alone or pulsed with the ORF3P peptide from an alternative reading frame of TRP1 were negative controls. 397mel is an HLA-A31-negative, NY-ESO-1-positive tumor line.
DNA transfection and GM-CSF assay were done as previously described (Wang, R. F., P. F. Robbins, Y. Kawakami, X. Q. Kang, and S. A. Rosenberg, 1995, J. Exp. Med. 181:799–804). Briefly, […] of DNA carrying a different fragment and 50 ng of the HLA-A31 DNA were mixed with 2 μl of lipofectamine in 100 μl of serum-free DMEM for 15–45 min. The DNA/lipofectamine mixture was then added to the COS-7 (5×10^4) cells and incubated overnight. The following day, cells were washed twice with DMEM medium. […] After 18–24 h incubation, 100 μl of supernatant was collected and GM-CSF was measured in a standard ELISA assay (R+D Systems, Minneapolis, Minn.). […]

Experiment [2] has as its system CTL clone 2. Nature of the experiment: T cell recognition (GM-CSF release) of peptide-pulsed EBV B cells by CTL clone 2. The note with it: peptide pulsed onto 1510EBV or 586EBV B cells. The source says: (§1) FIGS. 7A–7C. An alternative open reading frame of the NY-ESO-1 gene and antigenic peptides recognized by CTL. FIG. 7A. Identification of antigenic peptides from the ORF2. Thirty peptides were synthesized based on all potential ORFs and screened. Representative data are shown here. Seven peptides derived from ORF2 (see FIG. 3A) were pulsed on HLA-A31 positive 1510EBV B cells and tested for T cell recognition based on GM-CSF release ([…], SEQ ID NO: 123; […], SEQ ID NO: 124; […], SEQ ID NO: 125; […], SEQ ID NO: 46; […], SEQ ID NO: 47; […], SEQ ID NO: 126; and […], SEQ ID NO: 127). 1510 EBV alone was used as a negative control. FIG. 7B. 1510EBV B cells were labeled with chromium for 2 h. The ESORF2-10-18 peptide was then pulsed on the chromium-labeled […] (solid square) and HLA-A31-negative 1102EBV (open circle) at different concentrations. 1510EBV pulsed with ESO10-53, which was recognized by CTL clone 5, was used for the specificity control (solid triangle). After peptide incubation and three washes, cytolysis of target cells by CTL-clone 2 was determined in a 4-h chromium release assay at an E:T ratio of 20:1. FIG. 7C. Several tumor lines and fresh breast tumors were tested for recognition by CTL clone 2 to determine whether the ORF2 is translated in different tumors. 1510EBV B cells pulsed with […] (SEQ ID NO: 25) (ESO10-53), […] (SEQ ID NO: 47) (ORF2-10-18), or alone were included to evaluate the reactivity and specificity of CTL clone 2 and 5. Expression of HLA-A31 on the tumor cells is indicated.
DNA transfection and GM-CSF assay were done as previously described (Wang, R. F., P. F. Robbins, Y. Kawakami, X. Q. Kang, and S. A. Rosenberg, 1995, J. Exp. Med. 181:799–804). Briefly, […] of DNA carrying a different fragment and 50 ng of the HLA-A31 DNA were mixed with 2 μl of lipofectamine in 100 μl of serum-free DMEM for 15–45 min. The DNA/lipofectamine mixture was then added to the COS-7 (5×10^4) cells and incubated overnight. The following day, cells were washed twice with DMEM medium. TIL586, CTL clone 5 or CTL clone 10 were added at a concentration of 5×10^4 cells/well in AIM-V medium containing 120 IU/ml of IL-2. After 18–24 h incubation, 100 μl of supernatant was collected and GM-CSF was measured in a standard ELISA assay (R+D Systems, Minneapolis, Minn.). […]
CTL clone 5 and TIL1244 were used for the specificity controls. […] To test the hypothesis that CTL may recognize a peptide from a gene product translated from an alternative open reading frame of the same gene, synthetic peptides were made with HLA-A31 Binding motif on the basis of amino acid sequence predicted from the second open reading frames (ORF2) (FIG. 3A). […]

The test system of experiment [3] is CTL clone 2. Nature of the experiment: Chromium release cytolysis of peptide-pulsed target cells by CTL clone 2. The note with it: 4-h chromium release, E:T ratio of 20:1 (FIG. 7B).
Source text: as §1, with “Expression of HLA-A31 on the tumor cells is indicated.” left out
Cytolytic assay was done as previously described (Kawakami, Y et al., 1994, Proc. Natl. Acad. Sci. USA 91:6458–62). […] The cells were washed again, counted, and then mixed with TIL586 or CTL clone 5 at the indicated ratio of effector: targets (E:T). Chromium release was measured after 4 h incubation. […] Percentage of specific lysis was determined from the equation (A−B)/(C−B)×100 where A is lysis of 586EBV B cells by TIL586 or clone 5 in the presence of a peptide, B is spontaneous release from 586EBV B cells in presence of the same peptide but in the absence of effector cells, and C is the maximum chromium release. […]

“TRP197-205: peptide derived from TRP-2, recognized by TIL1244; specificity control (LLGPGRPYR; UniProt P40126 197-205, looked up, fragment)”: the “Recognition by TIL1244, in words” value in experiment [1] is “recognized”.
In the case of “LAAQERRVPR (listed as Homo sapiens) [ESORF2-10-18]”, the “Recognition by CTL clone 2, in words” value in experiment [2] is given as “recognized”. For the same substance, in experiment [3], the “Lysis of peptide-pulsed HLA-A31-negative 1102EBV by CTL clone 2” value is recorded as “failed to lyse”. In experiment [3] (peptide titration), the “Lysis of peptide-pulsed 1510EBV by CTL clone 2” value is recorded as “capable of lysing”.
